Reference: US9932621B2, “Modulators for Sirt5 and assays for screening same” (CORNELL UNIVERSITY, priority 2010, dated 2018)
Numbering of substitutions follows the chain as printed. “Also recorded” adds a separate entry of the source. Read-outs that look alike come from different tables or passages of the source. *1 amine or outer side, *2 acyl side, *3 side chain or, on linkers, in order; H or OH if unused. Where no end group is shown, it is not given here. The star is where a group is joined. AMC = Cc1cc(=O)oc2cc(N*)ccc12; Suc = O=C(CCC(=O)[*:2])[*:1]

Legend:
Sirt1 [1] = molecular target: T1, Sirt1 (Homo sapiens, UniProt Q96EB6); details: Sirt1, literature value; read-out: IC50, reported value in parentheses; cited from earlier work
T1 sequence (Q96EB6 1-747): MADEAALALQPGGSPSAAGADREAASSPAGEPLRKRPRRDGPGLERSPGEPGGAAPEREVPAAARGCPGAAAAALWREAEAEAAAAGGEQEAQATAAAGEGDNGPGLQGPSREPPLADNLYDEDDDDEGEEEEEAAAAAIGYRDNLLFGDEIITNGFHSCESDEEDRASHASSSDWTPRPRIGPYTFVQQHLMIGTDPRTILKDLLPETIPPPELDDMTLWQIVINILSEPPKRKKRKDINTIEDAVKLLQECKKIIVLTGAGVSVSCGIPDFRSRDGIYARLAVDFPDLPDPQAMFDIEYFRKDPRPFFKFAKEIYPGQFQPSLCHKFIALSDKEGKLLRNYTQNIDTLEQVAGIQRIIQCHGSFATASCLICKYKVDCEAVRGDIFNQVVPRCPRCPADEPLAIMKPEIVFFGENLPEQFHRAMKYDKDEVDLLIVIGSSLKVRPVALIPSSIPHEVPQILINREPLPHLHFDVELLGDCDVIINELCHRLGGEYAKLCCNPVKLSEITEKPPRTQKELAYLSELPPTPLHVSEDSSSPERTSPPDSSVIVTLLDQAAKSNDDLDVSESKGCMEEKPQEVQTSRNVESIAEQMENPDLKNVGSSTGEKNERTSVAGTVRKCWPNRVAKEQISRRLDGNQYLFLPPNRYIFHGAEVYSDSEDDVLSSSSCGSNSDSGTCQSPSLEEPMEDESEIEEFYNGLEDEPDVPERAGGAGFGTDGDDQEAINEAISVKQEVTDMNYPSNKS

Sirt5 [2] = molecular target: T2, Sirt5 (Homo sapiens, UniProt Q9NXA8); assay: Sirt5 inhibition IC50 (desuccinylase, HPLC-based assay); assay type: biochemical; details: Sirt5 1 μM, 0.3 mM acyl peptide, 0.5 mM NAD; * = no inhibition at 100 μM
T2 construct: made in house
T2 sequence (Q9NXA8 37-310): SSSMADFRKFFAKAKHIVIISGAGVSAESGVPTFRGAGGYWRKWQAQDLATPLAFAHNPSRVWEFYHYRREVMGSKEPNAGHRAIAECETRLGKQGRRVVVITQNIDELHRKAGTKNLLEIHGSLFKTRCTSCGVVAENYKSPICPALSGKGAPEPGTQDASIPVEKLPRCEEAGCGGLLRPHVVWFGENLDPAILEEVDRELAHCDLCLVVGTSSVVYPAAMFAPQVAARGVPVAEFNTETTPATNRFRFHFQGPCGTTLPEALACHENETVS
Protocol: (§1) All assays were carried out under identical enzyme (1 μM) and substrate (0.3 mM acyl peptide, 0.5 mM NAD) concentrations.

Sirt3 = molecular target: T3, Sirt3 (Homo sapiens, UniProt Q9NTG7); assay: Sirt3 inhibition IC50; assay type: biochemical
T3 construct: made in house
T3 sequence (Q9NTG7 1-399): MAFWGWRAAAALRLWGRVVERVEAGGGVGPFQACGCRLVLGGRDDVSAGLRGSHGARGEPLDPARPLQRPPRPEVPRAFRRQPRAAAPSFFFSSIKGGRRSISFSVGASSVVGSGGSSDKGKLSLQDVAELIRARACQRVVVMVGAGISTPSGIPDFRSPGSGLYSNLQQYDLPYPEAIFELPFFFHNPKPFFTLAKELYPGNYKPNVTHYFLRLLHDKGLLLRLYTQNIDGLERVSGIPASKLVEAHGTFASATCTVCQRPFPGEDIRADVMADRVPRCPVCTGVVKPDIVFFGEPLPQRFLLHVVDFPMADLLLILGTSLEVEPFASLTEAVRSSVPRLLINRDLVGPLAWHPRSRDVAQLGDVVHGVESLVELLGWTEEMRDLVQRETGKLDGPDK
Protocol: as §1

Sirt5 [3] = molecular target: T2, Sirt5; assay: Screening for Sirt5 inhibitors with ISGASE(SuK)-AMC in the fluorogenic assay; assay type: biochemical; details: compound 30 μM, ISGASE(SuK)-AMC 0.3 mM, Sirt5 1 μM, FIG. 13
Protocol: SirT5 (1 μM) was incubated with ISGASE(SuK)-AMC (SEQ ID NO:11) peptide (0.3 mM), NAD (0.5 mM) in Tris-HCl buffer (pH 7.4, 20 mM) with DTT (1 mM) in 60 μL reactions for 4 hours at 37° C. Then trypsin (1 μg) and CaCl2 (1 mM) were added and the reactions were incubated for 3 hours at 37° C. The reactions were the diluted with 50 μL water. The mixture (100 μL) was transferred to 96 well plate and the fluorescence was recorded by BIO-TEK® Synergy HT plate reader (Optics Position: Top, Sensitivity: 50, Excitation at the wavelength of 360 nm and Emission at the wavelength of 460 nm).
The procedure was the same as described above (Assaying Sirt5 activity on ISGASE(SuK)-AMC in the fluorogenic assay), except that different compounds (30 μM) were included in the reactions. In the desuccinylation step, Sirt5 was added last to initiate the desuccinylation reaction.

Sirt2 [4] = molecular target: T4, Sirt2 (Homo sapiens, UniProt Q8IXJ6); assay: Sirt2 inhibition IC50; assay type: biochemical
T4 construct: made in house
T4 sequence (Q8IXJ6 1-389): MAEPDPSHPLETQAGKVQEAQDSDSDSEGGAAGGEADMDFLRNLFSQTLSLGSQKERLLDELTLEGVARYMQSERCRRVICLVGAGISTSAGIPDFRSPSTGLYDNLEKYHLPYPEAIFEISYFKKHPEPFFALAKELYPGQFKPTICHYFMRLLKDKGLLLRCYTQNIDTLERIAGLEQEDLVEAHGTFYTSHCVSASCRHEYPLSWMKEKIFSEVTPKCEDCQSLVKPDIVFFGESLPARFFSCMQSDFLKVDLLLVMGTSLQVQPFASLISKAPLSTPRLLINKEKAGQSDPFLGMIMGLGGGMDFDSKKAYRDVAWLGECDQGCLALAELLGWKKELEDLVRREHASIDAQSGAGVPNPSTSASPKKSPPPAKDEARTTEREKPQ
Protocol: as §1

Sirt1 [5] = molecular target: T1, Sirt1; assay: Sirt1 inhibition IC50; assay type: biochemical; parameters: made in house
Protocol: as §1

Sirt2 [6] = molecular target: T4, Sirt2; assay: Secondary screening using Sirt2 and ISGASE(AcK)-AMC fluorogenic assay; assay type: biochemical; details: inhibitor 30 μM, ISGASE(AcK)-AMC 0.3 mM, Sirt2 1 μM, FIG. 15
Protocol: SirT2 (1 μM) was incubated with ISGASE(AcK)-AMC (SEQ ID NO:13) peptide (0.3 mM), inhibitors (30 μM), NAD (0.5 mM) in Tris-HCl buffer (pH 7.4, 20 mM) containing dithiothreitol (DTT, 1 mM) in a 60 μL reaction for 4 hours at 37° C. Then trypsin (1 μg) and CaCl2 (1 mM) were added and the reaction were incubated for 3 hours at 37° C. The reactions were diluted with 50 μL water. The mixture (100 μL) was transferred to 96 well plate and the fluorescence was recorded by BIO-TEK® Synergy HT (Optics Position: Top, Sensitivity: 50, Excitation at the wavelength of 360 nm and Emission at the wavelength of 460 nm).

Sirt5 [7] = molecular target: T2, Sirt5; assay: Deacylation kinetics (kcat, Km) by HPLC, Sirt5; assay type: biochemical; details: wild-type Sirt5, Table 3
Protocol: (§2) For determination of kcat and Km, human Sirt1, Sirt2, Sirt3 and Sirt5 were measured by detecting the deacylated peptide from H3K9 acyl peptides using HPLC. Purified Sirtuin was incubated with 1.0 mM of NAD in 20 mM Tris-HCl buffer (pH 7.5) containing acyl peptides (0-750 μM) and 1 mM DTT in 60 μL reactions at 37° C. The reactions were stopped with 100 mM HCl and 160 mM acetic acid, analyzed by HPLC with a reverse phase C18 column (250×4.6 mm, 90 A, 10 μm, GraceVydac, Southborough, Mass.), with a linear gradient of 0% to 20% B for 10 min (1 mL/min). […] The kcat and Km values were obtained by curve-fitting the Vinitial/[E] versus [S] plot using KaleidaGraph. For Sirt5 R105M, the observed second order rate constant, kobs (rate/([Sirtuin][NAD])) was detected instead of kcat and Km because of the very weak deacylation activity. The experiments were done in duplicate.

Sirt5 R105M = molecular target: T5, Sirt5 R105M (Homo sapiens, UniProt Q9NXA8, R105M); assay: Deacylation kinetics by HPLC, mutant Sirt5 R105M; assay type: biochemical; details: read-out: Km for peptide
T5 sequence (Q9NXA8 37-310 R105M): T2 sequence (Q9NXA8 37-310) with R69M
Protocol: For determination of kcat and Km, human Sirt1, Sirt2, Sirt3 and Sirt5 were measured by detecting the deacylated peptide from H3K9 acyl peptides using HPLC. […] The reactions were stopped with 100 mM HCl and 160 mM acetic acid, analyzed by HPLC with a reverse phase C18 column (250×4.6 mm, 90 A, 10 μm, GraceVydac, Southborough, Mass.), with a linear gradient of 0% to 20% B for 10 min (1 mL/min). […] The kcat and Km values were obtained by curve-fitting the Vinitial/[E] versus [S] plot using KaleidaGraph. […] The experiments were done in duplicate.

Sirt5 H158Y = molecular target: T6, Sirt5 H158Y (Homo sapiens, UniProt Q9NXA8, H158Y); assay: Deacylation kinetics by HPLC, mutant Sirt5 H158Y; assay type: biochemical; details: read-out: Km for peptide
T6 sequence (Q9NXA8 37-310 H158Y): T2 sequence (Q9NXA8 37-310) with H122Y
Protocol: as §2

Sirt5 Y102F = molecular target: T7, Sirt5 Y102F (Homo sapiens, UniProt Q9NXA8, Y102F); assay: Deacylation kinetics by HPLC, mutant Sirt5 Y102F; assay type: biochemical; details: read-out: Km for peptide
T7 sequence (Q9NXA8 37-310 Y102F): T2 sequence (Q9NXA8 37-310) with Y66F
Protocol: as §2

Sirt5 [8] = molecular target: T2, Sirt5; assay: Sirt5-catalyzed desuccinylation of AMC-succinyl peptides monitored by HPLC; assay type: biochemical
Protocol: […] The reactions were stopped with 200 mM HCl and 320 mM acetic acid, analyzed by HPLC with a reverse phase C18 column (250×4.6 mm, 90 A, 10 μm, GraceVydac, Southborough, Mass.), with a linear gradient of 0% to 20% B for 10 min (1 mL/min).

Sirt5 [9] = molecular target: T2, Sirt5; assay: Sirt5 fluorogenic assay with KQTAR(SuK)-AMC; assay type: biochemical; details: reaction with Sirt5
Protocol: SirT5 (1 μM) was incubated with KQTAR(SuK)-AMC (SEQ ID NO: 10) peptide (0.3 mM), NAD (0.5 mM) in Tris-HCl buffer (pH 7.4, 20 mM) containing dithiothreitol (DTT, 1 mM) in a 60 μL reaction for 16 hours at 37° C. Then trypsin (1 μg) and CaCl2 (1 mM) were added and the reaction were incubated for 14 hours at 37° C. The reactions were diluted with 50 μL water. The mixture (100 μL) was transferred to 96 well plate and the fluorescence was recorded by BIO-TEK® Synergy HT plate reader (Optics Position: Top, Sensitivity: 50, Excitation at the wavelength of 360 nm and Emission at the wavelength of 460 nm).

Question: Which IC50 (Sirt1 [1]) does the source give for `N#C/C(=C\c1ccc(-c2cc(Cl)ccc2Cl)o1)C(=O)Nc1cccc2ncccc12` [AGK2] here?
Answer: > 40 µM

Question: And the IC50 (Sirt5 [2])?
Answer: 120 µM

Question: With `C[C@H](NC(=O)[C@H](CCCCN)NC(=O)CNC(=O)CNC(=O)[C@@H](NC(=O)[C@H](CO)NC(=O)[C@H](CCCCNC(=S)CCC(=O)O)NC(=O)[C@H](CCCNC(=N)N)NC(=O)[C@H](C)NC(=O)[C@@H](NC(=O)[C@H](CCC(N)=O)NC(=O)[C@@H](N)CCCCN)[C@@H](C)O)[C@@H](C)O)C(=O)O` [H3K9 TSu, KQTAR(TSuK)STGGKA] as the compound, how does the IC50 (Sirt3; Sirt3 1 μM, 0.3 mM acyl peptide, 0.5 mM NAD, * = no inhibition at 100 μM) read?
Answer: > 100 µM

Question: And the “inhibition of Sirt3” value (Sirt3; at 100 μM concentration)?
Answer: did not inhibit

Question: And the “inhibition of Sirt5 (fluorescence) in fluorogenic assay” value (Sirt5 [3])?
Answer: close to background level; also recorded: significant inhibition

Question: And the IC50 (Sirt2 [4]; Sirt2 1 μM, 0.3 mM acyl peptide, 0.5 mM NAD, * = no inhibition at 100 μM)?
Answer: > 100 µM

Question: What about the “inhibition of Sirt2” value (Sirt2 [4]; at 100 μM concentration) of the same compound?
Answer: did not inhibit

Question: What about the IC50 (Sirt1 [5]; Sirt1 1 μM, 0.3 mM acyl peptide, 0.5 mM NAD, * = no inhibition at 100 μM) of the same compound?
Answer: > 100 µM

Question: What about the “inhibition of Sirt1” value (Sirt1 [5]; at 100 μM concentration) of the same compound?
Answer: did not inhibit

Question: What about the IC50 (Sirt5 [2]) of the same compound?
Answer: 5 µM

Question: What about the “fluorescence produced by Sirt2 in fluorogenic assay” value (Sirt2 [6]) of the same compound?
Answer: did not significantly decrease the fluorescence

Question: What does the source list for “H3K9 succinyl peptide: synthesized H3K9 succinyl lysine peptide, Sirt5 substrate (KQTARK(Suc)-{AMC})”?
Answer: kcat (Sirt5 [7]): 0.029 ± 0.002 s⁻¹; Km (Sirt5 [7]; read-out: Km for peptide): 41 ± 11 µM; Km (Sirt5 R105M): > 750 µM; Km (Sirt5 H158Y): > 750 µM; Km (Sirt5 Y102F): > 750 µM

Question: For KQTAR(SuK)-AMC (KQTARK(Suc)-{AMC}), which “hydrolysis by Sirt5” value (Sirt5 [8]; 1 μM Sirt5, 3 hrs) is on record?
Answer: 10%

Question: And the “hydrolysis by Sirt5” value (Sirt5 [8]; 5 μM Sirt5, 3 hrs)?
Answer: 60%

Question: What about the “fluorescence with Sirt5” value (Sirt5 [9]) of the same compound?
Answer: 3600 relative fluorescence unit
